Assay results published in patent US20050164370A1 (priority 2003, published 2005).

Tests used:
Assay type in all cases: cell-based, yeast
cytokinin receptor AHK3 = molecular target: T1, cytokinin receptor AHK3 (Arabidopsis thaliana, UniProt Q9C5U1); experiment: Agonist-activity to cytokinin receptor, optical density of TM182-AHK3 liquid culture; parameters: expressed in transfected cells; host or cells: yeast strain TM182 carrying plasmid p415CYC-AHK3 (pHM-1 backbone, CYC1 promoter); settings: TM182-AHK3, examinee substance 100 μM, DOLU+Glu, 30° C. for 24 hours
T1 sequence (Q9C5U1 1-1036): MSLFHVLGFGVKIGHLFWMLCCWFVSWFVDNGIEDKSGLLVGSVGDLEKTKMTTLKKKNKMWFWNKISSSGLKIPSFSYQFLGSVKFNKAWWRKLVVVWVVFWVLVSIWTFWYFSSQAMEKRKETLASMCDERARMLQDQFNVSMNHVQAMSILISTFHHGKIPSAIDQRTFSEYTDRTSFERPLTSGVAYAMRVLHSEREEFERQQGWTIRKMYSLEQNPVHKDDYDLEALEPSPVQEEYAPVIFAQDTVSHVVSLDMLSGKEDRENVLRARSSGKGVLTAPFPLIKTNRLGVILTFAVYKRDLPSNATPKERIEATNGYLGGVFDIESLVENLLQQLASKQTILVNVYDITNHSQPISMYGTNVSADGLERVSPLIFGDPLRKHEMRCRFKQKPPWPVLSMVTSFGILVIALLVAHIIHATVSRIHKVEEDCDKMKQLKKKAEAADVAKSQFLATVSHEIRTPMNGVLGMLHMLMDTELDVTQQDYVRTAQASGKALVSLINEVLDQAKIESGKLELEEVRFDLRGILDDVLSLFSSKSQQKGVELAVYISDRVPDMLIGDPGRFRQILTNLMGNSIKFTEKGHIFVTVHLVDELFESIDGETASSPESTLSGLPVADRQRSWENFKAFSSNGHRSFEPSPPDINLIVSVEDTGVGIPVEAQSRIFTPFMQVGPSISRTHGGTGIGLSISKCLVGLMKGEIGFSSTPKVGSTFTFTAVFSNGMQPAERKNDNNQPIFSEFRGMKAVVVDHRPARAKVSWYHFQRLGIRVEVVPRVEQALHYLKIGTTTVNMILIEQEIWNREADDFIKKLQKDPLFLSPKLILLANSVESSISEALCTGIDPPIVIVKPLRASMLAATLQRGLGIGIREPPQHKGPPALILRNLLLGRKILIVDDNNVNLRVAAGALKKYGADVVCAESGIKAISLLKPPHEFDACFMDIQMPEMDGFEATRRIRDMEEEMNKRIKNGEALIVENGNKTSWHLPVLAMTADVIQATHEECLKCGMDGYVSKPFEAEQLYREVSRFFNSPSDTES
Protocol: The transformed cells TM182-AHK2, TM182-AHK2Δ and TM182-AHK3 produced in the reference example 1 were inoculated in 200 ml of DOLU+Gal culture media and pre-cultured at 30° C. for 36 hours. The pre-cultured solutions were diluted with DOLU+Glu media as to become 0.100 as the optical density (OD600) and further the resultants were diluted with DOLU+Glu media at a dilution rate of 1/200 to obtain diluted pre-cultured solutions.
An assay plate was prepared by filling respective wells of a 96-well plate with 20 μl of solutions which were prepared by diluting DMSO solution (10 mM) of each examinee substance with DOLU+Glu medium at a dilution rate of 1/100, said solutions containing each examinee substance to be […]. […]
The diluted pre-cultured solutions were added in 200 μl each into the respective wells of both assay plates and cultured at 30° C. for 24 hours and then the optical density (OD620) of each well was measured by a plate reader. The agonist-activity of the examinee substances to the cytokinin receptor was detected by comparing the optical density measured in the testing sections to which the examinee substances were added with the optical density measured in the blank sections.

[1] = test system: transformed cells TM182-AHK2-CYC1IPT4; experiment: Liquid culture of transformed cell TM182-AHK2-CYC1IPT4 with examinee substance, absorbance; settings: Table 4, TM182-AHK2-CYC1-IPT4, 1 μL of 200 ppm DMSO solution per 100 μL, DOHLU+Glu, 30° C. for 24 hours
Protocol: (§1) The thus obtained culture solutions were diluted with DOHLU+Glu culture medium so that OD600 became 0.200, and then the diluted ones were further diluted with DOHLU+Glu culture medium at a dilution rate of 1/200 to obtain diluted pre-cultured solutions.
(§2) A 96-well assay plate was prepared by filling each well with 1 μL of a DMSO solution of an examinee substance (Abscisic acid or 6-Benzyl aminopurine). In this regard, it is to be noted that the DMSO solution of a examinee substance was prepared so that the concentration thereof became 200 ppm. Simultaneously, an assay plate was prepared by filling each well with 1 μL of DMSO as a blank section.
(§3) Each of the diluted pre-cultured solutions was added in a volume of 100 μL per each well of both of the assay plates, and was cultured at 30° C. for 24 hours. After incubation, the turbidity of each well was measured using a plate reader. The absorbance (OD600) of each of the culture solutions of the transformed cells containing the examinee substance was shown in Table 4. […] Further, the growth speeds of the transformed cells TM182-CRE1-ADHIPT4, TM182-AHK2-CYC1IPT4, TM182-AHK2-CYC1IPT5 and TM182-AHK2-ADHIPT5 in the culture medium to which 6-Benzyl aminopurine was added were faster than those in the culture medium to which only DMSO was added.

[2] = test system: transformed cells TM182-CYC1-CYC1IPT5; experiment: Liquid culture of transformed cell TM182-CYC1-CYC1IPT5 with examinee substance, absorbance; settings: DOHLU+Glu, 30° C. for 24 hours
Protocol: as §1, §2
as §3, with “3.” for “4.”, “TM182-CRE1-CYC1IPT4” for “TM182-CRE1-ADHIPT4, TM182-AHK2-CYC1IPT4, TM182-AHK2-CYC1IPT5”, “TM182-CRE1-ADHIPT5” for “TM182-AHK2-ADHIPT5”
as §3

[3] = Table 3, TM182-CYC1-CYC1-IPT5, 1 μL of 200 ppm DMSO solution per 100 μL
[4] = Table 4, TM182-CYC1-CYC1-IPT5, 1 μL of 200 ppm DMSO solution per 100 μL

Row | SMILES | optical density (OD620) of the culture solution (cytokinin receptor AHK3) | absorbance (OD600) of the culture solution [1] | absorbance (OD600) of the culture solution [2, 3] | absorbance (OD600) of the culture solution [2, 4]
1 | CC1=CC(=O)CC(C)(C)[C@@]1(O)/C=C/C(C)=C\C(=O)O [Compound A, Abscisic acid] | 0.54 | 0.194 | 0.041 | 0.036
2 | c1ccc(CNc2ncnc3nc[nH]c23)cc1 [Compound B, 6-Benzyl aminopurine] | 0.88 | 0.339 | 0.043 | 0.035
